For one assay, the target named is METTL3/METTL14 (Homo sapiens, UniProt Q86U44). The assay is described as follows: METTL3-14 standard enzyme assay (3H-SAM flashplate). The settings on record: Table 4; METTL3 biochemical assay. In outline:
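Radiometric methyltransferase read-out: after quenching with excess unlabelled SAM (15 μM), biotinylated RNA was captured on streptavidin flashplates (2 h, 25° C) and counted. Reactions contained 2.5 nM enzyme (5 min preincubation), 100 nM RNA and 100 nM 3H-SAM, ran 30 min in HEPES pH 7.5 buffer with KCl, MgCl2, DTT.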

A further assay deals with PRMT5-MEP50 (Homo sapiens, UniProt O14744). The assay is described as follows: PRMT5 assay (3H-SAM flashplate). The settings on record: Table 4; PRMT5 biochemical assay. In outline:
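Radiometric methyl-transfer read-out: 3H-methyl transferred to a 3′-biotinylated, acetylated H4 peptide substrate (100 nM) from 3H-SAM (250 nM), captured on streptavidin scintillation plates. Enzyme complex 2.5 nM, pH 8.0 Tris buffer with DTT and Tween, compound preincubation 5 min, 60 min reaction stopped with excess unlabeled SAM.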

Another assay deals with T1, FLT3 (Homo sapiens, UniProt P36888).
T1 sequence (P36888 27-993): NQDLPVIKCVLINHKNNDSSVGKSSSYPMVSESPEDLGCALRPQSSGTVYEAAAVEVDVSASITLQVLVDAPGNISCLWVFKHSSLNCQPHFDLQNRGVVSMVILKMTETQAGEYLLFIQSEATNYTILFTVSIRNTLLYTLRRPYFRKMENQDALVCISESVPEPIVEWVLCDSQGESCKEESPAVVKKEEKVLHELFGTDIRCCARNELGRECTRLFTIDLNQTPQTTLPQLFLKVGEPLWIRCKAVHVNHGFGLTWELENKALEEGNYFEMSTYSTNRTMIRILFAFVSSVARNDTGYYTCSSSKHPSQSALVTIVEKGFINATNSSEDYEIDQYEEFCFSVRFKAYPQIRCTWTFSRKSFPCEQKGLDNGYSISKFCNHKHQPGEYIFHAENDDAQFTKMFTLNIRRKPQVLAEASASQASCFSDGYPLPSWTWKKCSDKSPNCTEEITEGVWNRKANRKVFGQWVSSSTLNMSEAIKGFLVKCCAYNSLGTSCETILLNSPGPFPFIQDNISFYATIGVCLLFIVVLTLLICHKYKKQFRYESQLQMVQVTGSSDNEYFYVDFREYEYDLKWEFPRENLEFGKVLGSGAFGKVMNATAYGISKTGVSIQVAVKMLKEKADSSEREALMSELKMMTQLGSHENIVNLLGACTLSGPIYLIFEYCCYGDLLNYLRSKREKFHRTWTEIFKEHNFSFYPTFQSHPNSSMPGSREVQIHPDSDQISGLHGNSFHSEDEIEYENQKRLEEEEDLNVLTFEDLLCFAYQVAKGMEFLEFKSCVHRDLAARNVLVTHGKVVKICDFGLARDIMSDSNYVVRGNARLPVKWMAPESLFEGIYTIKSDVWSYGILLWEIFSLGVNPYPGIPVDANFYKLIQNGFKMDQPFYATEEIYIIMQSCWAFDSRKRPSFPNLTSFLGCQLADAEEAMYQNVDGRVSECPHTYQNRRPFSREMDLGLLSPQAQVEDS
In words: FLT3 Caliper assay. The format is biochemical. The settings on record: Table 4; read-out: FLT3 Calipher assay IC50. On the procedure:
(§1) FLT3/FLT3-ITD Caliper Assays
(§2) Assays were performed in a 20 μl-volume in 384-well polypropylene microplates (Perkin Elmer Proxiplate, cat. No. 6059480) at ambient temperature. Optimized 1× assay buffer was 50 mM Hepes pH 7.5, 2 mM DTT, 0.01% Tween, 0.01% BSA, 10 mM MgCl2. For compound screening FLT3 (final concentration, f.c.=0.9 nM) or FLT3-ITD (f.c.=7 nM) was added using a Multidrop Combi (ThermoFisher Scientific, Waltham, MA) and preincubated for 10 min. Reactions were started by adding fluorescein-peptide (sequence 5-FAM-EAIYAAPFAKKK-CONH2) (f.c.=300 μM) and ATP (FLT3 f.c.=97 μM FLT3-ITD f.c.=146 μM) substrates. Reactions proceeded for 60 minutes. The reactions were stopped with LabChip ProfilerPro Separation Buffer containing EDTA (f.c.=20 mM). The plates were read on a Caliper microfluidics reader (PerkinElmer, Waltham, MA).

In the next assay the target is T2, FLT3-ITD (Homo sapiens, UniProt P36888).
T2 sequence (P36888 1-993): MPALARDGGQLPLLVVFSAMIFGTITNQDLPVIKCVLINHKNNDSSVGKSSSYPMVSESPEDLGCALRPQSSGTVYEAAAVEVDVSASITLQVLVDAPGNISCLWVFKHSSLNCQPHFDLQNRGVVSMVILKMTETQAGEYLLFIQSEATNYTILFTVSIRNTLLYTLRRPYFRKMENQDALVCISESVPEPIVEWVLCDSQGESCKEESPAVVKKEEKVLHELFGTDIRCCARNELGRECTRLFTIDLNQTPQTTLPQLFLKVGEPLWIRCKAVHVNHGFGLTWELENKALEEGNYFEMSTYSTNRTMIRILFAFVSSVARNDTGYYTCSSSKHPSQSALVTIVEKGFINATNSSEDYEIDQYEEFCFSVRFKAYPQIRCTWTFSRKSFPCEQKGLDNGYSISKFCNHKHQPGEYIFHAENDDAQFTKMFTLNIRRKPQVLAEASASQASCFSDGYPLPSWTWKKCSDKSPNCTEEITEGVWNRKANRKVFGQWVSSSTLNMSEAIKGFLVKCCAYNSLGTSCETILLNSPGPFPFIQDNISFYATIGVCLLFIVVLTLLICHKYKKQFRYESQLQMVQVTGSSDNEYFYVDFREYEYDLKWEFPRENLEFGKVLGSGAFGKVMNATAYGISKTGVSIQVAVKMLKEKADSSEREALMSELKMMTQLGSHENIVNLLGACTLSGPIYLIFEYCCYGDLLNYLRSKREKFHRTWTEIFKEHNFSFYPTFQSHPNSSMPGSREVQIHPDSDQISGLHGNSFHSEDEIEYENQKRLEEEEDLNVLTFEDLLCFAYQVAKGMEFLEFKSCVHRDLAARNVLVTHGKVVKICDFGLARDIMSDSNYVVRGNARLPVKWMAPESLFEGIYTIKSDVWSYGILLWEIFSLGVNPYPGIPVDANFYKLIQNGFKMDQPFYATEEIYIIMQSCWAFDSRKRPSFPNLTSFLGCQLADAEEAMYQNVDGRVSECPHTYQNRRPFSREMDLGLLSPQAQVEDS
In words: FLT3-ITD Caliper assay. Format: biochemical. The note with it: Table 4; read-out: FLT3-ITD Calipher assay IC50. On the procedure: as §1, §2

Data on 18 compounds can be found in US20240051985A1, “METTL3 MODULATORS” (ACCENT THERAPEUTICS, INC., priority 2020, published 2024).

SMILES strings stand for the structures.

Sequence of PRMT5-MEP50 (O14744 whole entry): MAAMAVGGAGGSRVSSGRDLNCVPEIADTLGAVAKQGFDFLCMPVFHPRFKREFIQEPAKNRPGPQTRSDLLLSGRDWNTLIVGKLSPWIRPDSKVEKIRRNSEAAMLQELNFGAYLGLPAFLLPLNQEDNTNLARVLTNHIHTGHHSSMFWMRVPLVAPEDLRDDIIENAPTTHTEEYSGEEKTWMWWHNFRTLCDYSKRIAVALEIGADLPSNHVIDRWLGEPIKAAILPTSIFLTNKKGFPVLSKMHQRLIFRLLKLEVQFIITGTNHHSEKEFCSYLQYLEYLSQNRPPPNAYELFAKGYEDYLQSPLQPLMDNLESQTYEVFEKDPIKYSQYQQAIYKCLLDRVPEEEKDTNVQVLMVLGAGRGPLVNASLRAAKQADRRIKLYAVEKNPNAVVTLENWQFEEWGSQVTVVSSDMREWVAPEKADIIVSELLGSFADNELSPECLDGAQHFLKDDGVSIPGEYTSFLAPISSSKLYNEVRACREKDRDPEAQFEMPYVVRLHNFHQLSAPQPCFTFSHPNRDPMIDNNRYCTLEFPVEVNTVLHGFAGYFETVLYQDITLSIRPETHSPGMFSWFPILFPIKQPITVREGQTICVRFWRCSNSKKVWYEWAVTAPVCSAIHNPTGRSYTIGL
Sequence of PRMT5-MEP50 (Q9BQA1 whole entry partner): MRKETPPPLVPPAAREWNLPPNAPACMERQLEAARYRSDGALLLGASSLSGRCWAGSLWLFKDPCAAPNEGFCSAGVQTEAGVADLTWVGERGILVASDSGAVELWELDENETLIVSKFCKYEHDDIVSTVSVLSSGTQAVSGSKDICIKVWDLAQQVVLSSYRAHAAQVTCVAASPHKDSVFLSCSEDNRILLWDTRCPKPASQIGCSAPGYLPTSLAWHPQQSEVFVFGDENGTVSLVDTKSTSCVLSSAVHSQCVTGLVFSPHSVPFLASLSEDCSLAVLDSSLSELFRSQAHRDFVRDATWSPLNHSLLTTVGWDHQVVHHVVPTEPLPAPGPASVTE
Sequence of METTL3/METTL14 (Q86U44 whole entry, species assumed): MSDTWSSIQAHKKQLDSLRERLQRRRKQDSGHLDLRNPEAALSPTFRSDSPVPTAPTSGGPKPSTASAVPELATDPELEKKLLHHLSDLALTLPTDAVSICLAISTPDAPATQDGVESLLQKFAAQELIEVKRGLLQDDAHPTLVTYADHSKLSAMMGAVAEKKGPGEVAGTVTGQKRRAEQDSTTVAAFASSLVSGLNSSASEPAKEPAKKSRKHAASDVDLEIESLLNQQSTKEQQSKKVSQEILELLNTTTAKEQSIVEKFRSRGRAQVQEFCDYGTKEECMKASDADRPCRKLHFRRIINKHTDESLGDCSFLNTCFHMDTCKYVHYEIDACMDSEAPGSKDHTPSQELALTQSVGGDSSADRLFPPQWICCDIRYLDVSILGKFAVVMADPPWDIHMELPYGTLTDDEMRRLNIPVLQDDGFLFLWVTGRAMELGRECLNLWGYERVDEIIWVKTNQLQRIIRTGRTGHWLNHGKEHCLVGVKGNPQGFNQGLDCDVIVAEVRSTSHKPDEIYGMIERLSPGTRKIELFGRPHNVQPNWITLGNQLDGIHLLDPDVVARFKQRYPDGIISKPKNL
Sequence of METTL3/METTL14 (Q9HCE5 whole entry partner, species assumed): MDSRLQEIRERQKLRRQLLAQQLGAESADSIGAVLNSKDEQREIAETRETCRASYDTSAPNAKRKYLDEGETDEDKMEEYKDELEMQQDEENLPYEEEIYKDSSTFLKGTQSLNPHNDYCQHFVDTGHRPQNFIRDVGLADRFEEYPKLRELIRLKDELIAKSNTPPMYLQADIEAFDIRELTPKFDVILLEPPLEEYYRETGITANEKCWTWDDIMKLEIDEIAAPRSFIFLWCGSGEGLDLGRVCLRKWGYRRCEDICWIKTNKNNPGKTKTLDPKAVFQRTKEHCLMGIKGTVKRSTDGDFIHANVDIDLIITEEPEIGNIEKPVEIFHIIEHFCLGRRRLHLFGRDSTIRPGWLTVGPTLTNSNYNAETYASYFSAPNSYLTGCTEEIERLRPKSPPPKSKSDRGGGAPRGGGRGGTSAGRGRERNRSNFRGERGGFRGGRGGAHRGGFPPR

Regarding `Cn1ccc(-c2cn([C@@H]3O[C@H](C(=O)Nc4cc(F)cc(F)c4)[C@@H](O)[C@H]3O)c3ncnc(N)c23)n1` [Compound I-158], the IC50 (commonly the concentration that gives 50% inhibition) against METTL3/METTL14 is no less than 1000 nM; on PRMT5-MEP50 it was 100 to 1000 nM; at FLT3, no less than 1000 nM; at FLT3-ITD, no less than 1000 nM.

As to `Cn1ccc(-c2cn([C@@H]3O[C@H](C(=O)NCC#N)[C@@H](O)[C@H]3O)c3ncnc(N)c23)n1` [Compound I-229], the IC50 on METTL3/METTL14, on PRMT5-MEP50, at FLT3 and at FLT3-ITD was no less than 1000 nM each time.

As for `C[C@@H](NC(=O)[C@H]1O[C@@H](n2cc(-c3ccn(C)n3)c3c(N)ncnc32)[C@H](O)[C@@H]1O)C1CCNCC1` [Compound I-196], the 50% inhibitory concentration (IC50) is no less than 1000 nM on METTL3/METTL14, 100 to 1000 nM on PRMT5-MEP50, no less than 1000 nM at FLT3 and no less than 1000 nM on FLT3-ITD.

`CNc1cccc(CCNC(=O)[C@H]2O[C@@H](n3cc(-c4ccn(C)n4)c4c(N)ncnc43)[C@H](O)[C@@H]2O)n1` [Compound I-193]: the IC50 is 100 to 1000 nM on METTL3/METTL14, no less than 1000 nM at PRMT5-MEP50, no less than 1000 nM on FLT3 and no less than 1000 nM on FLT3-ITD.

For `Cn1ccc(-c2cn([C@@H]3O[C@H](C(=O)NCc4cc(F)cc(F)c4)[C@@H](O)[C@H]3O)c3ncnc(N)c23)n1` [Compound I-191], the IC50 against METTL3/METTL14 is 100 to 1000 nM; against PRMT5-MEP50 it was 100 to 1000 nM; on FLT3 it was no less than 1000 nM; at FLT3-ITD, no less than 1000 nM.

`Cn1ccc(-c2cn([C@@H]3O[C@H](C(=O)NCCc4cccnc4)[C@@H](O)[C@H]3O)c3ncnc(N)c23)n1` [Compound I-160]: the IC50 against METTL3/METTL14 was no less than 1000 nM; at PRMT5-MEP50 it was 10 to 100 nM; on FLT3, no less than 1000 nM; at FLT3-ITD it was no less than 1000 nM.

With `CCN(CC)C(=O)[C@H]1O[C@@H](n2cc(-c3ccn(C)n3)c3c(N)ncnc32)[C@H](O)[C@@H]1O` [Compound I-150], the IC50 at METTL3/METTL14 is no less than 1000 nM; against PRMT5-MEP50 it was 100 to 1000 nM; at FLT3, no less than 1000 nM; at FLT3-ITD it was no less than 1000 nM.

For `Cn1ccc(-c2cn([C@@H]3O[C@H](C(=O)Nc4cc(NC5CCC5)ccn4)[C@@H](O)[C@H]3O)c3ncnc(N)c23)n1` [Compound I-162], the half-inhibitory concentration (IC50) is 100 to 1000 nM against METTL3/METTL14, 10 to 100 nM against PRMT5-MEP50, no less than 1000 nM at FLT3 and no less than 1000 nM on FLT3-ITD.

For `CC(=O)N1CCC(NC(=O)[C@H]2O[C@@H](n3cc(-c4ccn(C)n4)c4c(N)ncnc43)[C@H](O)[C@@H]2O)CC1` [Compound I-37], the IC50 against METTL3/METTL14, at PRMT5-MEP50, at FLT3 and at FLT3-ITD was no less than 1000 nM in each case.

In the case of `Cn1ccc(-c2cn([C@@H]3O[C@H](C(=O)Nc4cc(N5CCC5)ccn4)[C@@H](O)[C@H]3O)c3ncnc(N)c23)n1` [Compound I-168], the half-inhibitory concentration (IC50) on METTL3/METTL14 was 100 to 1000 nM; against PRMT5-MEP50, 10 to 100 nM; at FLT3 it was no less than 1000 nM; on FLT3-ITD it was no less than 1000 nM.

Regarding `N#Cc1cn([C@@H]2O[C@H](C(=O)Nc3ccc4ccc(N5CCC5)nc4c3)[C@@H](O)[C@H]2O)c2ncnc(N)c12` [Compound I-52, (2S,3S,4R,5R)-5-{4-amino-5-cyano-7H-pyrrolo[2,3-d]pyrimidin-7-yl}-N-[2-(azetidin-1-yl)quinolin-7-yl]-3,4-dihydroxyoxolane-2-carboxamide], the 50% inhibitory concentration (IC50) against METTL3/METTL14 was in the range of 10 to 100 nM; at PRMT5-MEP50 it was 100 to 1000 nM; on FLT3 it was 100 to 1000 nM; on FLT3-ITD, 100 to 1000 nM.

Take `Cn1ccc(-c2cn([C@@H]3O[C@H](C(=O)NC4CCNC(=O)C4)[C@@H](O)[C@H]3O)c3ncnc(N)c23)n1` (stereo partly drawn) [Compound I-175]: the half-inhibitory concentration (IC50) against METTL3/METTL14, against PRMT5-MEP50, at FLT3 and on FLT3-ITD was no less than 1000 nM throughout.

In the case of `CN1CCC(NC(=O)[C@H]2O[C@@H](n3cc(-c4ccn(C)n4)c4c(N)ncnc43)[C@@H](F)[C@@H]2O)CC1` [Compound I-60], the IC50 was 100 to 1000 nM on METTL3/METTL14, no less than 1000 nM at PRMT5-MEP50, no less than 1000 nM at FLT3 and no less than 1000 nM on FLT3-ITD.

For the compound `CNc1nc2ccc(NC(=O)[C@H]3O[C@@H](n4cc(-c5ccn(C)n5)c5c(N)ncnc54)[C@H](O)[C@@H]3O)cc2[nH]1` [Compound I-142], the IC50 was less than 10 nM at METTL3/METTL14, less than 10 nM at PRMT5-MEP50, no less than 1000 nM on FLT3 and no less than 1000 nM at FLT3-ITD.

On to `CCNc1ccnc(NC(=O)[C@H]2O[C@@H](n3cc(-c4ccn(C)n4)c4c(N)ncnc43)[C@H](O)[C@@H]2O)n1` [Compound I-36], for which the IC50 on METTL3/METTL14 is no less than 1000 nM; against PRMT5-MEP50, 100 to 1000 nM; at FLT3, no less than 1000 nM; at FLT3-ITD it was no less than 1000 nM.

As to `Cn1ccc(-c2cn([C@@H]3O[C@H](C(=O)Nc4cc(NCC(F)F)ccn4)[C@@H](O)[C@H]3O)c3ncnc(N)c23)n1` [Compound I-169], the IC50 against METTL3/METTL14 is 100 to 1000 nM; at PRMT5-MEP50 it was 100 to 1000 nM; at FLT3, no less than 1000 nM; on FLT3-ITD it was no less than 1000 nM.

`CN(C)c1ccnc(NC(=O)[C@H]2O[C@@H](n3cc(-c4ccn(C)n4)c4c(N)ncnc43)[C@H](O)[C@@H]2O)c1` [Compound I-166]: the half-maximal inhibitory concentration (IC50) was 100 to 1000 nM at METTL3/METTL14, 10 to 100 nM at PRMT5-MEP50, no less than 1000 nM at FLT3 and no less than 1000 nM at FLT3-ITD.

Turning to `Cn1ccc(-c2cn([C@@H]3O[C@H](C(=O)Nc4cccnc4)[C@@H](O)[C@H]3O)c3ncnc(N)c23)n1` [Compound I-156], the IC50 was 100 to 1000 nM against METTL3/METTL14, 10 to 100 nM on PRMT5-MEP50, no less than 1000 nM on FLT3 and no less than 1000 nM at FLT3-ITD.
